Measured values published in US8962674B2 (Tokyo Institute of Technology, priority 2006, dated 2015).

In the case of `COc1cc(/C=C/C(=O)CC(=O)/C=C/c2ccc(Cl)cc2Cl)ccc1O` [CU144, (1E,6E)-1-(2,4-dichlorophenyl)-7-(4-hydroxy-3-methoxyphenyl)hepta-1,6-diene-3,5-dione], the melting point is reported as 124 to 130 °C.
`CC(C)(C)OC(=O)N[C@H](Cc1ccccc1)C(=O)Nc1ccc(/C=C/C(=O)CC(=O)/C=C/c2ccc(O)cc2)cc1` [CU406, (1E,6E)-1-[4-((R)-2-tert-butoxycarbonylamino-3-phenylpropionylamino)phenyl]-7-(4-hydroxyphenyl)hepta-1,6-diene-3,5-dione] showed a melting point of 113 to 120 °C.
Work on `COc1cc(/C=C/C(=O)CC(=O)/C=C/c2c(O)cccc2OC)ccc1O` [CU279, (1E,6E)-1-(2-hydroxy-6-methoxyphenyl)-7-(4-hydroxy-3-methoxyphenyl)hepta-1,6-diene-3,5-dione] yielded a melting point of 161 to 164 °C.
`O=C(/C=C/c1ccc(O)cc1)CC(=O)/C=C/c1ccccc1-c1ccncc1` [CU514, (1E,6E)-1-(4-hydroxyphenyl)-7-[2-(pyridin-4-yl)phenyl]hepta-1,6-diene-3,5-dione] showed a melting point of 249 to 256 °C.
Molecule `COc1ccc(/C=C/C(=O)CC(=O)/C=C/c2ccc(SC)cc2)cc1O` [CU216, (1E,6E)-1-(3-hydroxy-4-methoxyphenyl)-7-(4-methylthiophenyl)hepta-1,6-diene-3,5-dione] has a melting point of 158 to 162 °C.
In the case of `COCOc1ccc(OC)cc1/C=C/C(=O)CC(=O)/C=C/c1cc(OC)ccc1OCOC` [CU447, (1E,6E)-1,7-bis[5-methoxy-2-(methoxymethoxy)phenyl]hepta-1,6-diene-3,5-dione], the melting point is reported as 140 to 143 °C.
Work on `O=C(/C=C/c1ccc(O)cc1)CC(=O)/C=C/c1cc(C(F)(F)F)ccc1F` [CU473, (1E,6E)-1-(2-fluoro-5-trifluoromethylphenyl)-7-(4-hydroxyphenyl)hepta-1,6-diene-3,5-dione] yielded a melting point of 168 to 174 °C.
`Cc1cc(/C=C/C(=O)CC(=O)/C=C/c2ccc(O)cc2)ccc1O` [CU029, (1E,6E)-1-(4-hydroxy-3-methylphenyl)-7-(4-hydroxyphenyl)hepta-1,6-diene-3,5-dione] gave a melting point of 197 to 199 °C.
Molecule `CCN(CC)c1ccc(/C=C/C(=O)CC(=O)/C=C/c2ccc(OC)c(O)c2)c(OC(C)C)c1` [CU440, (1E,6E)-1-(4-diethylamino-2-isopropyloxyphenyl)-7-(3-hydroxy-4-methoxyphenyl)hepta-1,6-diene-3,5-dione] has a melting point of 117 to 120 °C.
`COc1cc(/C=C/C(=O)CC(=O)/C=C/c2ccc(O)c(OC)c2)cc(OC)c1` [CU100, (1E,6E)-1-(3,5-dimethoxyphenyl)-7-(4-hydroxy-3-methoxyphenyl)hepta-1,6-diene-3,5-dione] gave a melting point of 50 to 55 °C.
For `COc1cccc(/C=C/C(=O)CC(=O)/C=C/c2ccc(O)cc2)c1OC` [CU069, (1E,6E)-1-(2,3-dimethoxyphenyl)-7-(4-hydroxyphenyl)hepta-1,6-diene-3,5-dione], the melting point was 70 to 72 °C.
`CCN(CC)c1ccc(/C=C/C(=O)CC(=O)/C=C/c2ccc(O)cc2)c(OCCO)c1` [CU430, (1E,6E)-1-[4-diethylamino-2-(2-hydroxyethoxy)phenyl]-7-(4-hydroxyphenyl)hepta-1,6-diene-3,5-dione] gave a melting point of 182 to 186 °C.
Work on `Cc1ccc(Oc2ccc(/C=C/C(=O)CC(=O)/C=C/c3ccc(O)cc3)cn2)cc1` [CU333, (1E,6E)-1-(4-hydroxyphenyl)-7-[6-(4-methylphenoxy)pyridin-3-yl]hepta-1,6-diene-3,5-dione] yielded a melting point of 167 to 172 °C.
With `O=C(/C=C/c1cccnc1N1CCOCC1)CC(=O)/C=C/c1cccnc1N1CCOCC1` [CU366, (1E,6E)-1,7-bis(2-morpholinopyridin-3-yl)hepta-1,6-diene-3,5-dione] the melting point was 192 to 195 °C.
`COc1ccc(/C=C/C(=O)CC(=O)/C=C/c2ccc(O)c(Cl)c2)cc1O` [CU044, (1E,6E)-1-(3-chloro-4-hydroxyphenyl)-7-(3-hydroxy-4-methoxyphenyl)hepta-1,6-diene-3,5-dione] showed a melting point of 195 to 197 °C.
